Where two headings read alike, the source gives them in different places.
Tests used:
[1] = test system: HCT 116 colon cancer and MDA-MB231 breast cancer cell lines; assay: MTT cell proliferation assay (time course); assay type: cell-based; details: for cytotoxicity at 100 µM: read-out: cell viability decrease
Procedure: (§1) HCT 116 colon cancer and MDA-MB231 breast cancer cell lines are used in cell culture experiments.
(§2) Cells were treated with high-glucose DMEM medium (Biosera) supplemented with 10% FBS (Gibco) and 1× penicillin/streptomycin (Multicell). The assay was designed to contain 10,000 cells for each well of 24-well cell culture plates before being treated with inhibitors.
(§3) Compound of formula I was dissolved with DMSO as 20 mM stock. 24 hours later, the solution was diluted in DMEM with 10% FBS and final concentration of vehicle DMSO was 0.5% at maximum. Therefore, the vehicle group included 0.5% DMSO concentration in experiments. Intensive cultivation of cells causes a decrease in proliferation capacity.
For proliferation inhibition analysis, cells were seeded in 24 well plates at 1×10^4 cells/well cells overnight without drug treatment. During the cell proliferation experiments, we performed five days of treatment in each cell line and repeated the experiments three times to check each experiment. No significant difference in cell viability was observed after the third day. Therefore, cells with different drug concentrations were treated for two days. After 48 hours, MTT was applied to the cells and incubated at 37° C. for 4 hours, formazan was solubilized with DMSO (Sigma-Aldrich, St. Louis, USA) and absorbance was measured at 570 nm.
Molecule concentration was 100 μM, the lower concentrations were not shown. Vehicle represents the groups treated with only %0.5 DMSO and Untreated represents no molecule treated group. Molecule responses were evaluated by cell viability which is obtained by spectrophotometric analysis of cells upon MTT treatment at 12 h, 24 h, 48 h and 72 h. […] Statistical significance in graphs was determined by comparing each treatment group with DMSO control using ANOVA testing and significance is considered as p<0.001 (FIG. 2).

[2] = test system: HCT-116 cells; assay: Microscopic evaluation of cells (proliferation, apoptotic morphology); assay type: cell-based; details: FIG. 3
Procedure: Cells were photographed and observed under microscope for three days.
As a result, cell viability decreased by 40% at the end of the first day and reached 60% at the end of the third day. Any cell proliferation change and apoptotic cell morphology were not observed in the untreated and vehicle groups. Moreover, differences in cell morphology were also observed. […] Upon treatment with the compound of formula I according to present invention with 100 μM concentration, cells having the morphology of apoptotic cells were observed starting from the 3rd hour.

[3] = test system: MDA-MB231 cell lines; assay: MTT cell viability assay (IC50); assay type: cell-based; details: Homo sapiens, MDA-MB-231, single dose of treatment, 10^−9 to 10^−4 M, 570 nm absorbance, FIG. 1, read-out: IC50 (half-maximal inhibitory concentration), MTT cell viability
Procedure: as §1, §2, §3
The MTT cell viability assay was used to detect values of half-maximal inhibitory concentration (IC50). Different concentrations of compound of formula I ranging between 10^−9 to 10^−4 M were tested on MDA-MB231 cell lines with single dose of treatment. 570 nm absorbance values were recorded and IC50 values were calculated by dose response—inhibition curves and nonlinear regression analysis on Graphpad Prism 8 software.

[4] = biological target: MDM2 protein (Homo sapiens, UniProt Q00987); details: versus a natural p53 peptide; cited from earlier work
Chain of MDM2 protein (Q00987 whole entry, species assumed): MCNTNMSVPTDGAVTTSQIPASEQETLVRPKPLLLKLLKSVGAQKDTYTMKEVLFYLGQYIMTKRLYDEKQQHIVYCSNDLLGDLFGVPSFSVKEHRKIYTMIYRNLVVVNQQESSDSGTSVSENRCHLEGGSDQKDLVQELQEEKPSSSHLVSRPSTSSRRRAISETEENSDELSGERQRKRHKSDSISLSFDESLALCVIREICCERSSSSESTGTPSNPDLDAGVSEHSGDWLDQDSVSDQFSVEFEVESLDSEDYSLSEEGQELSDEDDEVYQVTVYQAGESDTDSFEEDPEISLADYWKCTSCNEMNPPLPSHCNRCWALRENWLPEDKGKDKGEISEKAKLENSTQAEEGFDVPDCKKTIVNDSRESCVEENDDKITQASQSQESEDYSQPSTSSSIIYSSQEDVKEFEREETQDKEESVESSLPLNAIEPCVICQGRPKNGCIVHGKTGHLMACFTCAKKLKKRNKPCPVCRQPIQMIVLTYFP

With `O=C(O)CC(NC(=O)Cc1c[nH]c2ccccc12)c1ccc(F)cc1` (centres unmarked) [compound of formula I] the “cell viability compared to vehicle and untreated groups” value ([1]; 100 μM, MTT at 12 h, 24 h, 48 h and 72 h, ANOVA, p<0.001, FIG. 2) was “statistically significant difference”, the cytotoxicity at 100 µM ([1]; end of the first day) was 40% and the cytotoxicity at 100 µM ([1]; end of the third day) was 60%. For the same molecule, the “time from which cells having the morphology of apoptotic cells were observed” value ([2]; 100 μM concentration) was 3 hour, the “apoptotic activity under microscope” value ([2]; HCT-116) was “clear apoptotic activity from the twelfth hour” and the proliferation under microscope ([2]; HCT-116, observed for three days, versus vehicle and untreated) was “reduced proliferation”. For the same molecule, the IC50 [3] was 77 µM.
For MI-319, the “binding affinity to MDM2 relative to natural p53 peptide” value [4] is listed as 500 fold.
